Data from patent US8883743B2, “Methods for treating obesity employing an SGLT2 inhibitor” (AstraZeneca AB, priority 2007, dated 2014).

What was measured:
[1] = Chronic weight loss study in diet-induced obese (DIO) rats; format: in vivo, rat
Procedure: DIO rats were sorted into treatment groups based on body weight, total kilocalories consumed, and body composition (via echo MRI). […] To assess the importance of compensatory over-eating in drug-treated animals, a subgroup of rats that received 5 mg/kg of dapagliflozin was restricted to the food intake of the placebo group. Body weight and the weight of both diets were determined daily. Respiratory quotient data were obtained on days 2 and 15 of the study, echo MRI was obtained on day 22, and blood was collected for a fasting clinical chemistry tests on day 27.
Percent weight changes were calculated as […].
The weight loss study with Compound IIIA (0.1, 0.3, 1, and 3 mg/kg) was performed using the same methods as the Dapagliflozin study.

[2] = 12-week once-daily oral treatment of treatment naive type II diabetes mellitus patients (glucosuria, body weight, BMI); format: in vivo, human; settings: type II diabetic patients, each dose group, 12 weeks
Procedure: Treatment naive type II diabetes mellitus patients, n=389, with inadequate blood glycemic control and low mean glucosuria at baseline were given once-daily oral treatments with dapagliflozin (2.5, 5, 10, 20, or 50 mgs), metformin XR® (750 mg titrated to 1500 mgs), or placebo over 12-weeks.

[3] = Procedure: Patients with type 2 diabetes were treated with placebo, 5 mg dapagliflozin propylene glycol, 25 mg dapagliflozin propylene glycol, or 100 mg dapagliflozin propylene glycol.

Row | SMILES | weight loss ([1]; DIO rats, 0.1, 0.3, 1 and 3 mg/kg daily over 25 days (FIG. 5)) | proportion of patients achieving a 5% weight reduction versus placebo [2] | glucosuric effects: loss of calories in the urine (glucose excretion/day) ([3]; healthy subjects, single doses 5, 20, 50 or 100 mg, indirect comparison versus GSK 869,682 (FIG. 1)) | 24-hour urine glucose excretion compared to placebo ([3]; subjects with type 2 diabetes, 5 mg, 25 mg and 100 mg, 14-day study (FIG. 2)) | weight loss when compound-induced overeating was prevented (pair fed to vehicle group) ([1]; DIO rats, 5 mg/kg subgroup restricted to food intake of placebo group (FIG. 4)) | weight loss versus vehicle ([1]; DIO rats, oral 0.5, 1 and 5 mpk daily over 25 days, p<0.05 (FIG. 4))
1 | CCc1ccc(Cc2cc([C@@H]3O[C@H](CO)[C@@H](O)[C@H](O)[C@H]3O)ccc2Cl)cc1 [Compound IIIA, (2S,3R,4R,5S,6R)-2-(4-chloro-3-(4-ethylbenzyl)phenyl)-6-(hydroxymethyl)tetrahydro-2H-pyran-3,4,5-triol] | significant weight loss in diet-induced obese rats in a dose proportional manner |  |  |  |  | 
2 | CCOc1ccc(Cc2cc([C@@H]3O[C@H](CO)[C@@H](O)[C@H](O)[C@H]3O)ccc2Cl)cc1 [Dapagliflozin-PGS, dapagliflozin propylene glycol hydrate] |  | higher proportion | significant loss of calories in the urine | significantly higher urine glucose excretion | weight loss was greater | significant weight loss
